# From patent US20260123631A1, “NATURAL PORPHIN SALT AND USE THEREOF AS PLANT GROWTH REGULATOR AND PLANT IMMUNITY INDUCER” (NANJING BOSTEC BIOLOGICAL ENGINEERING CO., LTD, priority 2022, published 2026)
# What was measured:
# [1] = Water solubility of the prepared salts; assay type: physicochemical
# [2] = Stability of sample solutions in the dark/under light; assay type: physicochemical; conditions: under light 30,000 lux, salts in water, acidic reference in 30% to 50% ethanol
# Method in brief: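 Salt in water, or acidic reference in 30–50% aqueous ethanol, at about 10 ppm; UV absorbance scanned 200–800 nm at 0, 1, 2, 3 h, stored at 25° C dark or under 30,000 lux light. Relative content = max-peak absorbance at each time divided by 0 h value (100%).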
# [3] = molecular target: chlorophyllase; assay: In vitro chlorophyllase-inhibiting activity test; assay type: biochemical, mung bean; conditions: substrate chlorophyll 120 ppm, sample 0.3 ppm to 30.0 ppm
# Procedure: A chlorophyllase inhibition rate of a salt sample solution at each concentration was determined, and an IC50 value for a chlorophyllase inhibition activity of a salt sample was calculated.
# [4] = system: mung bean seedlings; assay: Inducing adventitious roots from hypocotyls of mung bean; assay type: in vivo; conditions: day 7
# Procedure: Test solution preparation: 8 mL of a commercially-available STANLEY universal hydroponic nutrient solution was taken and diluted with tap water to 3,200 mL (400-fold dilution) to produce a dilute nutrient solution. An appropriate amount of each of salt samples such as protoporphyrin disodium and potassium chlorhematin was weighed and prepared with the dilute nutrient solution into 0.010 ppm and 0.1 ppm sample test solutions, and 150 mL of each test solution was taken. 150 mL of the dilute nutrient solution was taken as a blank control. The test solutions and the control solution were placed in brown bottles, and the brown bottles were sealed with a black film. Mung bean seedlings with uniform growth and a seedling height of 7 cm to 8 cm were selected, and cut at 3 cm below a first true leaf node. 8 mung bean seedlings were inserted into each bottle (with roots removed) to make lower radicles soaked in a solution. Mung bean seedlings were treated at room temperature of 20° C. to 25° C. for 7 d in total, during which the solution was changed every 2 d. On day 2 to day 3 of the treatment, there was a significant difference. On day 7, the observation and determination were conducted. An average adventitious root number and an average total adventitious root length for each seedling were calculated, and results were shown in the following table: […]
# [5] = system: wheat; assay: Spraying on wheat to increase a yield; assay type: in vivo, wheat (Huaimai 35)
# Procedure: Crop: Huaimai 35. […] On Jun. 11, 2021, the harvesting was conducted throughout the field at a time.
# [6] = system: rice; assay: Germination of rice under salt stress; assay type: in vivo, rice (Nanjing 9108); conditions: sample 0.2 ppm; for Increase of root weight-promoting speed / Increase of root-shoot ratio / Increase of seedling weight-promoting rate: versus 4.5 g/L NaCl without sample
# Procedure: The selected full seeds of rice (variety: Nanjing 9108) were soaked in a sodium hypochlorite solution to allow disinfection for 2 min to 3 min, and then rinsed with clear water twice to three times. After the rinsing, 50 full seeds were selected and fully immersed in a prepared seed-soaking solution at 25° C. for 48 h. The soaked seeds were transferred to a plastic box with two paper towel layers tiled. The germination bed was moistened with a salt solution at a concentration corresponding to each treatment. The seeds were incubated in a 25° C. incubator with a light cycle of 12 h light/12 h dark and a humidity of 70%, during which the germination bed was always kept moist. The germination of rice seeds and the growth of seedlings were observed and recorded day by day. A germination rate of each treatment was recorded on […], and a number of normal seedlings was counted on day 14. 10 seeds were randomly selected from each treatment to measure a seedling length, a root length, a root number, a root weight, and a seedling weight. The germination energy was counted on day 5 and a germination rate was counted on day 14.
# [7] = system: rice seedlings; assay: Spraying on drought rice seedlings; assay type: in vivo, rice (Huiliangyou 473)
# Procedure: Method: Full rice seeds were selected, disinfected with 6% sodium hypochlorite for 2 min to 3 min, then rinsed with water, soaked in clear water at room temperature (30±1° C.) until the germination was started, and then transferred to seedling trays to raise seedlings. About 15 d later, rice seedlings with consistent growth were selected and transferred into buckets to allow further growth, with 3 holes per bucket and 2 plants per hole. A soil was a clay loam. Before transplanting, the soil was crushed, sieved, and thoroughly mixed. […] The water, fertilizers, pests, and diseases during the cultivation in the seedling trays were uniformly managed.
# Drought model: The transplanting was conducted on Aug. 18, 2020. The next day (August 19), the natural drought and sample-spraying treatment were started for rice seedlings. A soil moisture content was determined by the NY/T 52-1987 method.
# After the drought stress and sample-spraying were started at a tillering stage (September 19) of rice, a chlorophyll content (mg/g) in leaves was detected twice on day 3 and day 6 (September 21 and September 25), respectively.
# [8] = 3 mg/mu sprayed 3 times (0.2, 0.1, 0.1 ppm)
substance,measurement,setting,value
potassium iron chlorin [Example 20],solubility in water,[1],easily soluble
same,Relative content,[2]; 1 h,70.13%
same,Relative content,[2]; 2 h,62.66%
same,Relative content,[2]; 3 h,59.17%
same,IC50 for chlorophyllase inhibition activity,[3],5.07 ppm
same,Adventitious root number,[4]; 0.01 ppm,15.05 root/seedling
same,Total adventitious root length,[4]; 0.01 ppm,24.56 cm/seedling
same,Adventitious root number,[4]; 0.1 ppm,14.54 root/seedling
same,Total adventitious root length,[4]; 0.1 ppm,23.55 cm/seedling
same,Actual yield per mu,[5]; [8],601.5 kg
same,Ear number per mu,[5]; [8],"31.9 10,000"
same,Grain number per ear,[5]; [8],35.0 grains/ear
same,Thousand-grain weight,[5]; [8],53.9 g
same,Yield increase rate per mu,"[5]; 3 mg/mu sprayed 3 times, versus clear water",7.60%
same,Average germination time,[6]; NaCl 0 g/L,3.10 D
same,Dry root weight,[6]; NaCl 0 g/L,0.0587 g/plant
same,Dry seedling weight,[6]; NaCl 0 g/L,0.0543 g
same,First leaf length,[6]; NaCl 0 g/L,3.84 cm
same,Germination energy,[6]; NaCl 0 g/L,98.0%
same,Germination index,[6]; NaCl 0 g/L,52.21%
same,Germination rate,[6]; NaCl 0 g/L,98.0%
same,Root length,[6]; NaCl 0 g/L,7.00 cm
same,Root number,[6]; NaCl 0 g/L,8.67 roots/plant
same,Root weight-promoting speed,[6]; NaCl 0 g/L,4.19 mg/day
same,Root-shoot ratio,[6]; NaCl 0 g/L,1.082
same,Seedling height,[6]; NaCl 0 g/L,6.83 cm
same,Seedling weight-promoting rate,[6]; NaCl 0 g/L,3.88 mg/day
same,Vitality index,[6]; NaCl 0 g/L,16.29%
same,Increase of root weight-promoting speed,[6]; NaCl 0 g/L,53.04%
same,Increase of root-shoot ratio,[6]; NaCl 0 g/L,25.31%
same,Increase of seedling weight-promoting rate,[6]; NaCl 0 g/L,19.27%
same,Average germination time,[6]; NaCl 2.5 g/L,3.28 D
same,Dry root weight,[6]; NaCl 2.5 g/L,0.0473 g/plant
same,Dry seedling weight,[6]; NaCl 2.5 g/L,0.0547 g
same,First leaf length,[6]; NaCl 2.5 g/L,3.79 cm
same,Germination energy,[6]; NaCl 2.5 g/L,96.7%
same,Germination index,[6]; NaCl 2.5 g/L,49.99%
same,Germination rate,[6]; NaCl 2.5 g/L,97.3%
same,Root length,[6]; NaCl 2.5 g/L,4.86 cm
same,Root number,[6]; NaCl 2.5 g/L,7.70 roots/plant
same,Root weight-promoting speed,[6]; NaCl 2.5 g/L,3.38 mg/day
same,Root-shoot ratio,[6]; NaCl 2.5 g/L,0.865
same,Seedling height,[6]; NaCl 2.5 g/L,6.68 cm
same,Seedling weight-promoting rate,[6]; NaCl 2.5 g/L,3.90 mg/day
same,Vitality index,[6]; NaCl 2.5 g/L,14.38%
same,Increase of root weight-promoting speed,[6]; NaCl 2.5 g/L,23.48%
same,Increase of root-shoot ratio,[6]; NaCl 2.5 g/L,0.15%
same,Increase of seedling weight-promoting rate,[6]; NaCl 2.5 g/L,20%
same,Average germination time,[6]; NaCl 4.5 g/L,3.16 D
same,Dry root weight,[6]; NaCl 4.5 g/L,0.0480 g/plant
same,Dry seedling weight,[6]; NaCl 4.5 g/L,0.0580 g
same,First leaf length,[6]; NaCl 4.5 g/L,3.88 cm
same,Germination energy,[6]; NaCl 4.5 g/L,97.3%
same,Germination index,[6]; NaCl 4.5 g/L,50.89%
same,Germination rate,[6]; NaCl 4.5 g/L,97.3%
same,Root length,[6]; NaCl 4.5 g/L,5.00 cm
same,Root number,[6]; NaCl 4.5 g/L,7.17 roots/plant
same,Root weight-promoting speed,[6]; NaCl 4.5 g/L,3.43 mg/day
same,Root-shoot ratio,[6]; NaCl 4.5 g/L,0.836
same,Seedling height,[6]; NaCl 4.5 g/L,6.71 cm
same,Seedling weight-promoting rate,[6]; NaCl 4.5 g/L,4.14 mg/day
same,Vitality index,[6]; NaCl 4.5 g/L,15.12%
same,Increase of root weight-promoting speed,[6]; NaCl 4.5 g/L,25.22%
same,Increase of root-shoot ratio,[6]; NaCl 4.5 g/L,−3.17%
same,Increase of seedling weight-promoting rate,[6]; NaCl 4.5 g/L,27.32%
same,Change rate of chlorophyll content,"[7]; 0.002 ppm, Day 3",9.49%
same,Chlorophyll content in rice leaves,"[7]; 0.002 ppm, Day 3",3.69 mg/g
same,Change rate of chlorophyll content,"[7]; 0.002 ppm, Day 6",42.96%
same,Chlorophyll content in rice leaves,"[7]; 0.002 ppm, Day 6",3.86 mg/g
same,Change rate of chlorophyll content,"[7]; 0.05 ppm, Day 3",29.67%
same,Chlorophyll content in rice leaves,"[7]; 0.05 ppm, Day 3",4.37 mg/g
same,Change rate of chlorophyll content,"[7]; 0.05 ppm, Day 6",63.70%
same,Chlorophyll content in rice leaves,"[7]; 0.05 ppm, Day 6",4.42 mg/g
